Laboratory results reported in US6613718B2, “Aryl ether derivatives and processes for their preparation and herbicidal and desiccant compositions containing them” (Ishihara Sangyo Kaisha, Ltd., priority 2001, dated 2003).

Key:
Type in all cases: in vivo
[1] = tested on: field corn (Zea mays L., var. Dekalb 535, CORN); experiment: Post-emerge greenhouse screening, crop safety / corn selectivity (phytotoxicity rating); settings: for CORN crop damage, phytotoxicity rating (0-100 scale): 14 days after application
Outline: (§1)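 Track-sprayer application, nozzle 40-45 cm above soil or canopy; compound in acetone at 15 to 1000 g ai/ha. Visual 0–100 rating at 14 days after treatment.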

[2] = tested on: redroot pigweed (Amaranthus retroflexus, AMARE); experiment: Pre-emerge greenhouse herbicide activity screening, phytotoxicity rating; settings: 14 days after application
Outline: as §1

[3] = tested on: large crabgrass (Digitaria sanguinalis, DIGSA); experiment: as above; settings: 14 days after application
Outline: as §1

[4] = tested on: ivyleaf morningglory (Ipomoea hederacea, IPOHE); experiment: as above; settings: 14 days after application
Outline: as §1

[5] = tested on: lambsquarters (Chenopodium album, CHEAL); experiment: as above; settings: 14 days after application
Outline: as §1

[6] = tested on: barnyardgrass (Echinochloa crus-galli, ECHCG); experiment: as above; settings: 14 days after application
Outline: as §1

[7] = tested on: green foxtail (Setaria viridis, SETVI); experiment: as above; settings: 14 days after application
Outline: as §1

[8] = tested on: velvetleaf (Abutilon theophrasti, ABUTH); experiment: as above; settings: 14 days after application
Outline: as §1

[9] = tested on: johnsongrass (Sorghum halepense, SORHA); experiment: as above; settings: 14 days after application
Outline: as §1

[10] = tested on: common ragweed (Ambrosia artemisiifolia L., AMBEL); experiment: as above; settings: 14 days after application
Outline: as §1

[11] = tested on: sicklepod (Cassia obtusifolia, CASOB); experiment: as above; settings: 14 days after application
Outline: as §1

[12] = tested on: soybean (Glycine max L., var. Pella 86, SOY); experiment: Post-emerge greenhouse screening, crop safety (phytotoxicity rating); settings: 14 days after application
Outline: as §1

[13] = tested on: upland rice (Oryza sp., var.Tebonnet, RICE); experiment: as above; settings: 14 days after application
Outline: as §1

[14] = tested on: redroot pigweed (Amaranthus retroflexus, AMARE); experiment: Post-emerge greenhouse herbicide activity screening, phytotoxicity rating
Outline: as §1

[15] = tested on: large crabgrass (Digitaria sanguinalis, DIGSA); experiment: as above; settings: 14 days after application
Outline: as §1

[16] = tested on: ivyleaf morningglory (Ipomoea hederacea, IPOHE); experiment: as above; settings: 14 days after application
Outline: as §1

[17] = tested on: lambsquarters (Chenopodium album, CHEAL); experiment: as above
Outline: as §1

[18] = tested on: barnyardgrass (Echinochloa crus-galli, ECHCG); experiment: as above; settings: 14 days after application
Outline: as §1

[19] = tested on: green foxtail (Setaria viridis, SETVI); experiment: as above
Outline: as §1

[20] = tested on: velvetleaf (Abutilon theophrasti, ABUTH); experiment: as above; settings: 14 days after application
Outline: as §1

[21] = tested on: johnsongrass (Sorghum halepense, SORHA); experiment: as above; settings: 14 days after application
Outline: as §1

[22] = tested on: common ragweed (Ambrosia artemisiifolia L., AMBEL); experiment: as above
Outline: as §1

[23] = tested on: sicklepod (Cassia obtusifolia, CASOB); experiment: as above
Outline: as §1

[24] = tested on: field corn (Zea mays L., var. Dekalb 535, CORN); experiment: Pre-emerge greenhouse screening, crop safety (phytotoxicity rating); settings: 14 days after application
Outline: as §1

[25] = tested on: soybean (Glycine max L., var. Pella 86, SOY); experiment: as above; settings: 14 days after application
Outline: as §1

[26] = tested on: upland rice (Oryza sp., var.Tebonnet, RICE); experiment: as above; settings: 14 days after application
Outline: as §1

[27] = 125 g ai/ha, 14 days after application
[28] = 250 g ai/ha, 14 days after application

Fc1cc(Cl)c(Oc2ncccn2)cc1-c1nn2c(c1Br)CCCC2 [Compound 6-2]
CORN selectivity, phytotoxicity rating (0-100 scale) ([1]; 31.3 g ai/ha): 3
CORN selectivity, phytotoxicity rating (0-100 scale) ([1]; 62.5 g ai/ha): 10
CORN crop damage, phytotoxicity rating (0-100 scale) ([1]; 125 g ai/ha): 15
CORN crop damage, phytotoxicity rating (0-100 scale) ([1]; 250 g ai/ha): 15
AMARE phytotoxicity rating (0-100 scale) ([2]; 125 g ai/ha): 100
AMARE phytotoxicity rating (0-100 scale) ([2]; 250 g ai/ha): 100
DIGSA phytotoxicity rating (0-100 scale) ([3]; 125 g ai/ha): 100
DIGSA phytotoxicity rating (0-100 scale) ([3]; 250 g ai/ha): 100
IPOHE phytotoxicity rating (0-100 scale) ([4]; 125 g ai/ha): 85
IPOHE phytotoxicity rating (0-100 scale) ([4]; 250 g ai/ha): 100
CHEAL phytotoxicity rating (0-100 scale) ([5]; 125 g ai/ha): 100
CHEAL phytotoxicity rating (0-100 scale) ([5]; 250 g ai/ha): 100
ECHCG phytotoxicity rating (0-100 scale) ([6]; 125 g ai/ha): 99
ECHCG phytotoxicity rating (0-100 scale) ([6]; 250 g ai/ha): 100
SETVI phytotoxicity rating (0-100 scale) ([7]; 125 g ai/ha): 100
SETVI phytotoxicity rating (0-100 scale) ([7]; 250 g ai/ha): 100
ABUTH phytotoxicity rating (0-100 scale) ([8]; 125 g ai/ha): 100
ABUTH phytotoxicity rating (0-100 scale) ([8]; 250 g ai/ha): 100
SORHA phytotoxicity rating (0-100 scale) ([9]; 125 g ai/ha): 100
SORHA phytotoxicity rating (0-100 scale) ([9]; 250 g ai/ha): 100
AMBEL phytotoxicity rating (0-100 scale) ([10]; 125 g ai/ha): 99
AMBEL phytotoxicity rating (0-100 scale) ([10]; 250 g ai/ha): 100
CASOB phytotoxicity rating (0-100 scale) ([11]; 125 g ai/ha): 100
CASOB phytotoxicity rating (0-100 scale) ([11]; 250 g ai/ha): 100
SOY crop damage, phytotoxicity rating (0-100 scale) ([12]; 125 g ai/ha): 99
SOY crop damage, phytotoxicity rating (0-100 scale) ([12]; 250 g ai/ha): 99
RICE crop damage, phytotoxicity rating (0-100 scale) ([13]; 125 g ai/ha): 95
RICE crop damage, phytotoxicity rating (0-100 scale) ([13]; 250 g ai/ha): 98
AMARE phytotoxicity rating (0-100 scale) ([14]; 31.3 g ai/ha): 100
AMARE phytotoxicity rating (0-100 scale) ([14]; 62.5 g ai/ha): 100
AMARE phytotoxicity rating (0-100 scale) [14, 27]: 100
AMARE phytotoxicity rating (0-100 scale) [14, 28]: 100
DIGSA phytotoxicity rating (0-100 scale) ([15]; 125 g ai/ha): 75
DIGSA phytotoxicity rating (0-100 scale) ([15]; 250 g ai/ha): 80
IPOHE phytotoxicity rating (0-100 scale) ([16]; 125 g ai/ha): 100
IPOHE phytotoxicity rating (0-100 scale) ([16]; 250 g ai/ha): 100
CHEAL phytotoxicity rating (0-100 scale) ([17]; 31.3 g ai/ha): 100
CHEAL phytotoxicity rating (0-100 scale) ([17]; 62.5 g ai/ha): 100
CHEAL phytotoxicity rating (0-100 scale) [17, 27]: 100
CHEAL phytotoxicity rating (0-100 scale) [17, 28]: 100
ECHCG phytotoxicity rating (0-100 scale) ([18]; 125 g ai/ha): 90
ECHCG phytotoxicity rating (0-100 scale) ([18]; 250 g ai/ha): 95
SETVI phytotoxicity rating (0-100 scale) ([19]; 31.3 g ai/ha): 100
SETVI phytotoxicity rating (0-100 scale) ([19]; 62.5 g ai/ha): 100
SETVI phytotoxicity rating (0-100 scale) [19, 27]: 100
SETVI phytotoxicity rating (0-100 scale) [19, 28]: 100
ABUTH phytotoxicity rating (0-100 scale) ([20]; 125 g ai/ha): 100
ABUTH phytotoxicity rating (0-100 scale) ([20]; 250 g ai/ha): 100
SORHA phytotoxicity rating (0-100 scale) ([21]; 125 g ai/ha): 80
SORHA phytotoxicity rating (0-100 scale) ([21]; 250 g ai/ha): 95
AMBEL phytotoxicity rating (0-100 scale) ([22]; 31.3 g ai/ha): 80
AMBEL phytotoxicity rating (0-100 scale) ([22]; 62.5 g ai/ha): 85
AMBEL phytotoxicity rating (0-100 scale) [22, 27]: 85
AMBEL phytotoxicity rating (0-100 scale) [22, 28]: 90
CASOB phytotoxicity rating (0-100 scale) ([23]; 31.3 g ai/ha): 100
CASOB phytotoxicity rating (0-100 scale) ([23]; 62.5 g ai/ha): 100
CASOB phytotoxicity rating (0-100 scale) [23, 27]: 100
CASOB phytotoxicity rating (0-100 scale) [23, 28]: 100
CORN crop damage, phytotoxicity rating (0-100 scale) ([24]; 125 g ai/ha): 20
CORN crop damage, phytotoxicity rating (0-100 scale) ([24]; 250 g ai/ha): 40
SOY crop damage, phytotoxicity rating (0-100 scale) ([25]; 125 g ai/ha): 25
SOY crop damage, phytotoxicity rating (0-100 scale) ([25]; 250 g ai/ha): 40
RICE crop damage, phytotoxicity rating (0-100 scale) ([26]; 125 g ai/ha): 60
RICE crop damage, phytotoxicity rating (0-100 scale) ([26]; 250 g ai/ha): 75

N#Cc1c(-c2cc(Oc3ncccn3)c(Cl)cc2F)nn2c1CCCC2 [Compound 6-17]
CORN crop damage, phytotoxicity rating (0-100 scale) ([1]; 125 g ai/ha): 0
CORN crop damage, phytotoxicity rating (0-100 scale) ([1]; 250 g ai/ha): 5
AMARE phytotoxicity rating (0-100 scale) ([2]; 125 g ai/ha): 100
AMARE phytotoxicity rating (0-100 scale) ([2]; 250 g ai/ha): 100
DIGSA phytotoxicity rating (0-100 scale) ([3]; 125 g ai/ha): 99
DIGSA phytotoxicity rating (0-100 scale) ([3]; 250 g ai/ha): 100
IPOHE phytotoxicity rating (0-100 scale) ([4]; 125 g ai/ha): 0
IPOHE phytotoxicity rating (0-100 scale) ([4]; 250 g ai/ha): 0
CHEAL phytotoxicity rating (0-100 scale) ([5]; 125 g ai/ha): 100
CHEAL phytotoxicity rating (0-100 scale) ([5]; 250 g ai/ha): 100
ECHCG phytotoxicity rating (0-100 scale) ([6]; 125 g ai/ha): 60
ECHCG phytotoxicity rating (0-100 scale) ([6]; 250 g ai/ha): 98
SETVI phytotoxicity rating (0-100 scale) ([7]; 125 g ai/ha): 100
SETVI phytotoxicity rating (0-100 scale) ([7]; 250 g ai/ha): 100
ABUTH phytotoxicity rating (0-100 scale) ([8]; 125 g ai/ha): 85
ABUTH phytotoxicity rating (0-100 scale) ([8]; 250 g ai/ha): 100
SORHA phytotoxicity rating (0-100 scale) ([9]; 125 g ai/ha): 95
SORHA phytotoxicity rating (0-100 scale) ([9]; 250 g ai/ha): 98
AMBEL phytotoxicity rating (0-100 scale) ([10]; 125 g ai/ha): 35
AMBEL phytotoxicity rating (0-100 scale) ([10]; 250 g ai/ha): 25
CASOB phytotoxicity rating (0-100 scale) ([11]; 125 g ai/ha): 0
CASOB phytotoxicity rating (0-100 scale) ([11]; 250 g ai/ha): 25
SOY crop damage, phytotoxicity rating (0-100 scale) ([12]; 125 g ai/ha): 70
SOY crop damage, phytotoxicity rating (0-100 scale) ([12]; 250 g ai/ha): 70
RICE crop damage, phytotoxicity rating (0-100 scale) ([13]; 125 g ai/ha): 80
RICE crop damage, phytotoxicity rating (0-100 scale) ([13]; 250 g ai/ha): 80
AMARE phytotoxicity rating (0-100 scale) [14, 27]: 100
AMARE phytotoxicity rating (0-100 scale) [14, 28]: 100
DIGSA phytotoxicity rating (0-100 scale) ([15]; 125 g ai/ha): 0
DIGSA phytotoxicity rating (0-100 scale) ([15]; 250 g ai/ha): 25
IPOHE phytotoxicity rating (0-100 scale) ([16]; 125 g ai/ha): 100
IPOHE phytotoxicity rating (0-100 scale) ([16]; 250 g ai/ha): 100
CHEAL phytotoxicity rating (0-100 scale) [17, 27]: 100
CHEAL phytotoxicity rating (0-100 scale) [17, 28]: 100
ECHCG phytotoxicity rating (0-100 scale) ([18]; 125 g ai/ha): 60
ECHCG phytotoxicity rating (0-100 scale) ([18]; 250 g ai/ha): 65
SETVI phytotoxicity rating (0-100 scale) [19, 27]: 90
SETVI phytotoxicity rating (0-100 scale) [19, 28]: 90
ABUTH phytotoxicity rating (0-100 scale) ([20]; 125 g ai/ha): 100
ABUTH phytotoxicity rating (0-100 scale) ([20]; 250 g ai/ha): 100
SORHA phytotoxicity rating (0-100 scale) ([21]; 125 g ai/ha): 0
SORHA phytotoxicity rating (0-100 scale) ([21]; 250 g ai/ha): 30
AMBEL phytotoxicity rating (0-100 scale) [22, 27]: 60
AMBEL phytotoxicity rating (0-100 scale) [22, 28]: 75
CASOB phytotoxicity rating (0-100 scale) [23, 27]: 70
CASOB phytotoxicity rating (0-100 scale) [23, 28]: 95
CORN crop damage, phytotoxicity rating (0-100 scale) ([24]; 125 g ai/ha): 0
CORN crop damage, phytotoxicity rating (0-100 scale) ([24]; 250 g ai/ha): 0
SOY crop damage, phytotoxicity rating (0-100 scale) ([25]; 125 g ai/ha): 0
SOY crop damage, phytotoxicity rating (0-100 scale) ([25]; 250 g ai/ha): 0
RICE crop damage, phytotoxicity rating (0-100 scale) ([26]; 125 g ai/ha): 25
RICE crop damage, phytotoxicity rating (0-100 scale) ([26]; 250 g ai/ha): 35
